# In PubChem BioAssay AID2060507 (Molecular Pharmacology Branch, DTP, NCI, 2025):
# Tested on: 519858-162-T-J1-PDC complex spheroid viability
# Experiment: Anticancer human tumor 519858-162-T-J1-PDC patient-derived colon adenocarcinoma cell line growth inhibition [GQUAD]
# Conditions: for IC50: curve of first compound; for viability, T/C: stronger effect = lower value
# How it was run: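 Tumor cells were grown as complex spheroids with HUVEC endothelial cells and mesenchymal stem cells as stroma. G-quadruplex stabilizers were combined with targeted agents over half-log dilutions from near the clinical Cmax, or from 10 microM.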
# [1] = second compound 0.0316 µM, first compound 0.0316 µM
# [2] = second compound 0.0316 µM, first compound 0.1 µM
# [3] = second compound 0.0316 µM, first compound 0.316 µM
# [4] = second compound 0.0316 µM, first compound 1 µM
# [5] = second compound 0.0316 µM, first compound 3.16 µM
# [6] = second compound 0.0316 µM, first compound 10 µM
# [7] = second compound 0.1 µM, first compound 0.0316 µM
# [8] = second compound 0.1 µM, first compound 0.1 µM
# [9] = second compound 0.1 µM, first compound 0.316 µM
# [10] = second compound 0.1 µM, first compound 1 µM
# [11] = second compound 0.1 µM, first compound 3.16 µM
# [12] = second compound 0.1 µM, first compound 10 µM
# [13] = second compound 0.316 µM, first compound 0.0316 µM
# [14] = second compound 0.316 µM, first compound 0.1 µM
# [15] = second compound 0.316 µM, first compound 0.316 µM
# [16] = second compound 0.316 µM, first compound 1 µM
# [17] = second compound 0.316 µM, first compound 3.16 µM
# [18] = second compound 0.316 µM, first compound 10 µM
# [19] = second compound 1 µM, first compound 0.0316 µM
# [20] = second compound 1 µM, first compound 0.1 µM
# [21] = second compound 1 µM, first compound 0.316 µM
# [22] = second compound 1 µM, first compound 1 µM
# [23] = second compound 1 µM, first compound 3.16 µM
# [24] = second compound 1 µM, first compound 10 µM
# [25] = second compound 3.16 µM, first compound 0.0316 µM
# [26] = second compound 3.16 µM, first compound 0.1 µM
# [27] = second compound 3.16 µM, first compound 0.316 µM
# [28] = second compound 3.16 µM, first compound 1 µM
# [29] = second compound 3.16 µM, first compound 3.16 µM
# [30] = second compound 3.16 µM, first compound 10 µM
# [31] = second compound 10 µM, first compound 0.0316 µM
# [32] = second compound 10 µM, first compound 0.1 µM
# [33] = second compound 10 µM, first compound 0.316 µM
# [34] = second compound 10 µM, first compound 1 µM
# [35] = second compound 10 µM, first compound 3.16 µM
# [36] = second compound 10 µM, first compound 10 µM
# 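Also: spheroids exposed to compounds for 7 days.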
# 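For viability, T/C in this document: 100% = DMSO vehicle control viability.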
smiles,measurement,setting,value
C=CCn1c(=O)c2cnc(Nc3ccc(N4CCN(C)CC4)cc3)nc2n1-c1cccc(C(C)(C)O)n1 + Cc1cnc(CNC(=O)c2c(=O)c3ccc(N4CCCN(C)CC4)nc3n3c2sc2ccccc23)cn1,IC50,second compound 0.0316 µM,> 10 µM
same,IC50,second compound 0.1 µM,> 10 µM
same,IC50,second compound 0.316 µM,> 10 µM
same,IC50,second compound 1 µM,< 0.0316 µM
same,IC50,second compound 3.16 µM,< 0.0316 µM
same,IC50,second compound 10 µM,< 0.0316 µM
same,"viability, T/C",[1],95.6%
same,"viability, T/C",[2],82.6%
same,"viability, T/C",[3],94.3%
same,"viability, T/C",[4],66.1%
same,"viability, T/C",[5],70.4%
same,"viability, T/C",[6],76%
same,"viability, T/C",[7],81.8%
same,"viability, T/C",[8],96.9%
same,"viability, T/C",[9],58.5%
same,"viability, T/C",[10],92%
same,"viability, T/C",[11],66.8%
same,"viability, T/C",[12],69.7%
same,"viability, T/C",[13],51.6%
same,"viability, T/C",[14],73%
same,"viability, T/C",[15],49.8%
same,"viability, T/C",[16],64.2%
same,"viability, T/C",[17],75.8%
same,"viability, T/C",[18],64.3%
same,"viability, T/C",[19],60%
same,"viability, T/C",[20],48.2%
same,"viability, T/C",[21],38.8%
same,"viability, T/C",[22],42.4%
same,"viability, T/C",[23],73.6%
same,"viability, T/C",[24],68%
same,"viability, T/C",[25],46.3%
same,"viability, T/C",[26],51.4%
same,"viability, T/C",[27],53.8%
same,"viability, T/C",[28],45.5%
same,"viability, T/C",[29],49.5%
same,"viability, T/C",[30],53.4%
same,"viability, T/C",[31],40%
same,"viability, T/C",[32],55.3%
same,"viability, T/C",[33],51.6%
same,"viability, T/C",[34],40.1%
same,"viability, T/C",[35],32.3%
same,"viability, T/C",[36],39.4%
CC(=O)O[C@H]1C(=O)[C@@]2(C)[C@H]([C@H](OC(=O)c3ccccc3)[C@]3(O)C[C@H](OC(=O)[C@H](O)[C@@H](NC(=O)c4ccccc4)c4ccccc4)C(C)=C1C3(C)C)[C@]1(OC(C)=O)CO[C@@H]1C[C@@H]2O + Cc1[nH]c2ccc(F)cc2c1-c1nc2c3cccnc3c3ncccc3c2[nH]1,IC50,second compound 0.0316 µM,> 10 µM
same,IC50,second compound 0.1 µM,> 10 µM
same,IC50,second compound 0.316 µM,> 10 µM
same,IC50,second compound 1 µM,> 10 µM
same,IC50,second compound 3.16 µM,> 10 µM
same,IC50,second compound 10 µM,> 10 µM
same,"viability, T/C",[1],80.1%
same,"viability, T/C",[2],136%
same,"viability, T/C",[3],103%
same,"viability, T/C",[4],82.4%
same,"viability, T/C",[5],71.2%
same,"viability, T/C",[6],79.7%
same,"viability, T/C",[7],87.8%
same,"viability, T/C",[8],97.5%
same,"viability, T/C",[9],109%
same,"viability, T/C",[10],98.9%
same,"viability, T/C",[11],97%
same,"viability, T/C",[12],116%
same,"viability, T/C",[13],91.1%
same,"viability, T/C",[14],78%
same,"viability, T/C",[15],70.8%
same,"viability, T/C",[16],72.3%
same,"viability, T/C",[17],108%
same,"viability, T/C",[18],126%
same,"viability, T/C",[19],116%
same,"viability, T/C",[20],62.5%
same,"viability, T/C",[21],58.5%
same,"viability, T/C",[22],89.3%
same,"viability, T/C",[23],69.4%
same,"viability, T/C",[24],109%
same,"viability, T/C",[25],67.5%
same,"viability, T/C",[26],77.5%
same,"viability, T/C",[27],51.1%
same,"viability, T/C",[28],106%
same,"viability, T/C",[29],77.8%
same,"viability, T/C",[30],55.5%
same,"viability, T/C",[31],54.5%
same,"viability, T/C",[32],93.7%
same,"viability, T/C",[33],68.1%
same,"viability, T/C",[34],74.4%
same,"viability, T/C",[35],75.5%
same,"viability, T/C",[36],104%
